What was measured:
Assay type in all cases: cell-based
[1] = target: T1, TYK2 (Homo sapiens, UniProt P29597); assay: TYK2 degradation MSD assay in human PBMC cells; parameters: endogenous in cells; host or cells: human PBMC; settings: 4 to 24 hours incubation, read-out: TYK2 MSD DC50 rating in human PBMC
Method in brief: (§1)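 MSD electrochemiluminescence readout of residual TYK2 in RIPA lysates after 4–24 h compound exposure at 37° C. Dosing: 9 concentrations, 1:3 steps, top 1 to 10 μM. DC50 fitted by four-parameter inhibitor vs. response regression.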

[2] = target: T1, TYK2; assay: TYK2 degradation MSD assay in EBV-B cells; parameters: endogenous in cells; host or cells: EBV-B cells; settings: 4 to 24 hours incubation, read-out: TYK2 MSD DC50 rating in EBV-B
Method in brief: as §1

[3] = target: T1, TYK2; assay: TYK2 degradation MSD assay in OCI-LY10 cells; parameters: endogenous in cells; host or cells: EBV-B cells; settings: 4 to 24 hours incubation, read-out: TYK2 MSD DC50 rating in OCI-LY10
Method in brief: as §1

T1 sequence (P29597 whole entry): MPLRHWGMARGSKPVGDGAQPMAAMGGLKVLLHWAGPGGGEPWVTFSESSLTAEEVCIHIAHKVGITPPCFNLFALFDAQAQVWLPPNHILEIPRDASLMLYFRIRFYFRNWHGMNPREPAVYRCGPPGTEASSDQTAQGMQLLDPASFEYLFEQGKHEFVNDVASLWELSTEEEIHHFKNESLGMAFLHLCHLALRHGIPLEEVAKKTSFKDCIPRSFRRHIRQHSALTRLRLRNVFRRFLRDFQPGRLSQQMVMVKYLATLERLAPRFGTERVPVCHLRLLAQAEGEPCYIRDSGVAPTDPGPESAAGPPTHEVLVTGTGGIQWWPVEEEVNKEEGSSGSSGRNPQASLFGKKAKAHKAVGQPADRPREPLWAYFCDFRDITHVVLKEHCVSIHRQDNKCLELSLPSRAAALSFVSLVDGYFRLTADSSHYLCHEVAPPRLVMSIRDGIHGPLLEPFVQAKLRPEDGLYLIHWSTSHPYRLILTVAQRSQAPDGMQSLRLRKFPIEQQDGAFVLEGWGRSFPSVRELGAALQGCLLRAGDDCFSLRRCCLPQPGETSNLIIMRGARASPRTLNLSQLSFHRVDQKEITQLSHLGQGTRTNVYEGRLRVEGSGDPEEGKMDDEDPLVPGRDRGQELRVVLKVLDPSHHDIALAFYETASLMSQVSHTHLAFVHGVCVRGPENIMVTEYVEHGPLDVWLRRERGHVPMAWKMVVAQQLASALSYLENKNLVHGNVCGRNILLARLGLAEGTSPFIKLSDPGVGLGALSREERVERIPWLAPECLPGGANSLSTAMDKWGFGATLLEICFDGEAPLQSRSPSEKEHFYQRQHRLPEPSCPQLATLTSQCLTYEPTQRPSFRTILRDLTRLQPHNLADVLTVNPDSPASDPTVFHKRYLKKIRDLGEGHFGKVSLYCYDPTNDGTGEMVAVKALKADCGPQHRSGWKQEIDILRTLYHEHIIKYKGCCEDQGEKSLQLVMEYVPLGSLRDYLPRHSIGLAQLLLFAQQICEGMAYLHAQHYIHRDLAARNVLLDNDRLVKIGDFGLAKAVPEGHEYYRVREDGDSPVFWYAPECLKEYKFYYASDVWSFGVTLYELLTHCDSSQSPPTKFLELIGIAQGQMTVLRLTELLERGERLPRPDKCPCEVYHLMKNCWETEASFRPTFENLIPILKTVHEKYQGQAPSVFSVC

Row | SMILES | DC50 [1] [nM] | DC50 [2] [nM] | DC50 [3] [nM]
1 | Cn1c(=O)n(C2CCC(=O)NC2=O)c2ccc(-c3ccc(N4CCN(Cc5ccc(-c6cccc(Nc7nn8c(C(=O)N[C@@H]9C[C@@H]9F)cnc8c8c7OCCN8)c6Cl)nc5)CC4)cc3)cc21 (stereo partly drawn) [Example K642] | > 100 | > 100 | 1 to 10
2 | CNc1cc(Nc2cccn(-c3ccc(C(=O)N4CCC(N5CCC(N6CCN(c7ccc8c(c7)n(C)c(=O)n8C7CCC(=O)NC7=O)CC6)CC5)CC4)cn3)c2=O)nn2c(C(=O)N[C@@H]3C[C@@H]3F)cnc12 (stereo partly drawn) [Example K453] | > 100 | < 1 | < 1
3 | CNc1cc(Nc2cccn(-c3ccc(C(=O)NCCOCCOCCc4ccc5c(c4)n(C)c(=O)n5C4CCC(=O)NC4=O)cn3)c2=O)nn2c(C(=O)N[C@@H]3C[C@@H]3F)cnc12 (stereo partly drawn) [Example K262] | 1 to 10 | > 100 | > 100
4 | CNc1cc(Nc2cccn(-c3ccc(C(=O)N4CCC(N5CC(N6CCN(c7ccc8c(c7)n(C)c(=O)n8C7CCC(=O)NC7=O)CC6)C5)CC4)cn3)c2=O)nn2c(C(=O)N[C@@H]3C[C@@H]3F)cnc12 (stereo partly drawn) [Example K381] | > 100 | < 1 | < 1
5 | CNC(=O)c1cnc(Nc2cc(C(=O)NCCCCc3cccc4c3n(C)c(=O)n4C3CCC(=O)NC3=O)ccn2)cc1Nc1cccc(-c2ncc(F)cn2)c1OC (stereo not drawn) [Example K128] | 1 to 10 | > 100 | > 100
6 | CNc1cc(Nc2cccc(N3CCC(CN4CC5(C4)CN(c4ccc(-c6ccc7c(c6)n(C)c(=O)n7C6CCC(=O)NC6=O)cc4)C5)CC3)c2OC)nn2c(C(=O)N[C@@H]3C[C@@H]3F)cnc12 (stereo partly drawn) [Example K623] | > 100 | > 100 | < 1
7 | CNC(=O)c1cnc(Nc2ccc(CN(C)C3CN(c4cccc5c4n(C)c(=O)n5C4CCC(=O)NC4=O)C3)cn2)cc1Nc1cccc(-c2ncc(F)cn2)c1OC (stereo not drawn) [Example K154] | < 1 | > 100 | < 1
8 | CNc1cc(Nc2cccc(CN3CCN(c4cccc5c4n(C)c(=O)n5C4CCC(=O)NC4=O)CC3)c2)nn2c(C(=O)NC3CC3)cnc12 (stereo not drawn) [Example K594] | > 100 | > 100 | > 100
9 | Cn1c(=O)n(C2CCC(=O)NC2=O)c2ccc(CCCCNc3cc(Nc4cccn(-c5ccccn5)c4=O)nn4c(C(=O)N[C@@H]5C[C@@H]5F)cnc34)cc21 (stereo partly drawn) [Example K204] | > 100 | > 100 | > 100
10 | CNC(=O)c1cnc(Nc2ccc(C(=O)NCCCCc3ccc4c(c3)n(C)c(=O)n4C3CCC(=O)NC3=O)cn2)cc1Nc1ccccc1OC (stereo not drawn) [Example K706] | > 100 | > 100 | > 100
11 | CNc1cc(Nc2cccn(-c3cccc(C(=O)NCCOCCOCCc4ccc5c(c4)n(C)c(=O)n5C4CCC(=O)NC4=O)c3)c2=O)nn2c(C(=O)N[C@@H]3C[C@@H]3F)cnc12 (stereo partly drawn) [Example K235] | 1 to 10 | > 100 | > 100
12 | CNc1cc(Nc2cccc(-c3ccc(CN4CCC(N5CC(c6cccc7c6n(C)c(=O)n7C6CCC(=O)NC6=O)C5)CC4)cn3)c2)nn2c(C(=O)N[C@@H]3C[C@@H]3F)cnc12 (stereo partly drawn) [Example K414] | > 100 | > 100 | < 1
13 | CNC(=O)c1cnc(Nc2ccc(CN3CCCC(c4cccc5c4n(C)c(=O)n5C4CCC(=O)NC4=O)C3)cn2)cc1Nc1cccc(-c2ncc(F)cn2)c1OC (stereo not drawn) [Example K156] | > 100 | > 100 | > 100
14 | CNc1cc(N2CCc3c(-c4cc(N5CCN(CC6CCN(c7cccc8c7n(C)c(=O)n8C7CCC(=O)NC7=O)CC6)CC5)ccn4)cccc32)nn2c(C(=O)NC3CC3F)cnc12 (stereo not drawn) [Example K656] | > 100 | > 100 | 1 to 10
15 | CNc1cc(Nc2cccn(C3CCN(C(=O)NCCCCCCCCCCc4ccc5c(c4)n(C)c(=O)n5C4CCC(=O)NC4=O)CC3)c2=O)nn2c(C(=O)N[C@@H]3C[C@@H]3F)cnc12 (stereo partly drawn) [Example K399] | > 100 | 1 to 10 | > 100
16 | CNc1cc(Nc2cccnc2OC2CCN(CCN3CCN(c4ccc5c(c4)n(C)c(=O)n5C4CCC(=O)NC4=O)CC3)CC2)nn2c(C(=O)N[C@@H]3C[C@@H]3F)cnc12 (stereo partly drawn) [Example K531] | > 100 | > 100 | 1 to 10
17 | CNc1cc(Nc2cccc(C(=O)NCCCCCCCCc3ccc4c(c3)n(C)c(=O)n4C3CCC(=O)NC3=O)c2)nn2c(C(=O)N[C@@H]3C[C@@H]3F)cnc12 (stereo partly drawn) [Example K251] | < 1 | > 100 | > 100
18 | CNc1cc(Nc2cccc(CN3CCC(N(C)CC4CCN(c5ccc(-c6ccc7c(c6)n(C)c(=O)n7C6CCC(=O)NC6=O)cc5)C4)CC3)c2)nn2c(C(=O)NC3CC3)cnc12 (stereo not drawn) [Example K583] | > 100 | > 100 | < 1
19 | CNc1cc(Nc2cccc(CN3CCN(c4ccc(-c5ccc6c(c5)n(C)c(=O)n6C5CCC(=O)NC5=O)cc4)CC3)c2Cl)nn2c(C(=O)N[C@@H]3C[C@@H]3F)cnc12 (stereo partly drawn) [Example K564] | > 100 | > 100 | < 1
20 | CNc1cc(Nc2cccc(CN3CCN(c4ccc5c(c4)n(C)c(=O)n5C4CCC(=O)NC4=O)CC3)c2)nn2c(C(=O)NC3CC3)cnc12 (stereo not drawn) [Example K591] | > 100 | > 100 | > 100
21 | CNC(=O)c1cnc(Nc2ccc(C3CN(Cc4ccc5c(c4)n(C)c(=O)n5C4CCC(=O)NC4=O)C3)cn2)cc1Nc1cccc(-c2ncc(F)cn2)c1OC (stereo not drawn) [Example K707] | > 100 | 1 to 10 | > 100
22 | CNc1cc(Nc2cccn(-c3ccc(C(=O)N4CCC(OC5CC(c6cccc7c6n(C)c(=O)n7C6CCC(=O)NC6=O)C5)CC4)cn3)c2=O)nn2c(C(=O)N[C@@H]3C[C@@H]3F)cnc12 (stereo partly drawn) [Example K442] | > 100 | > 100 | < 1
23 | CNc1cc(Nc2cccc(-c3ccc(CN4CCC(C#Cc5cccc6c5n(C)c(=O)n6C5CCC(=O)NC5=O)CC4)cn3)c2)nn2c(C(=O)N[C@@H]3C[C@@H]3F)cnc12 (stereo partly drawn) [Example K431] | > 100 | > 100 | 1 to 10
24 | CNc1cc(-c2cnn(C3CCN(C(=O)NCCCCc4ccc5c(c4)n(C)c(=O)n5C4CCC(=O)NC4=O)CC3)c2)nn2c(C(=O)N[C@@H]3C[C@@H]3F)cnc12 (stereo partly drawn) [Example K294] | > 100 | > 100 | > 100
25 | CNc1cc(-c2cnn(C3CCN(C(=O)NCCCCc4cccc5c4n(C)c(=O)n5C4CCC(=O)NC4=O)CC3)c2)nn2c(C(=O)N[C@@H]3C[C@@H]3F)cnc12 (stereo partly drawn) [Example K295] | > 100 | > 100 | > 100
26 | CNc1cc(N2CCc3c(N4CCC(CC5CC6(CCN(C(=O)c7ccc(Cl)c(N8CCC(=O)NC8=O)c7)CC6)C5)CC4)cccc32)nn2c(C(=O)N[C@@H]3C[C@@H]3F)cnc12 [Example K568] | > 100 | > 100 | 1 to 10
27 | CNc1cc(-c2ccc(C(=O)NCCCCCCCCc3cccc4c3n(C)c(=O)n4C3CCC(=O)NC3=O)cc2)nn2c(C(=O)N[C@@H]3C[C@@H]3F)cnc12 (stereo partly drawn) [Example K303] | > 100 | > 100 | > 100
28 | CNc1cc(Nc2cccn(-c3ccc(C(=O)N4CCC(N5CCC(N6CCN(c7cccc8c7n(C)c(=O)n8C7CCC(=O)NC7=O)CC6)CC5)CC4)cn3)c2=O)nn2c(C(=O)N[C@@H]3C[C@@H]3F)cnc12 (stereo partly drawn) [Example K462] | > 100 | > 100 | 1 to 10
